Data set [1] in a line: Hygroscopicity of the crystalline polymorphic forms. The class given is physicochemical. The settings on record: crystalline solid form.
A short description of data set [2]: Solid-state stability of the polymorphic forms.
For data set [3] the following is noted: cited from earlier work.

We go through three molecules from patent publication US20060025481A1, “Process for preparation of probucol derivatives and polymorphic forms thereof” (priority 2004, published 2006).

Turning to `CC(C)(Sc1cc(C(C)(C)C)c(O)c(C(C)(C)C)c1)Sc1cc(C(C)(C)C)c(OCC(=O)O)c(C(C)(C)C)c1` [Form A], in data set [1], the hygroscopicity entry was “nonhygroscopic”.

As for `CCC(Oc1c(C(C)(C)C)cc(SC(C)(C)Sc2cc(C(C)(C)C)c(O)c(C(C)(C)C)c2)cc1C(C)(C)C)C(=O)O` (stereo not drawn) [Form Al], in data set [2], the “stability of polymorphic form” value was “acceptable stability”.

For the molecule `CC(C)(Sc1cc(C(C)(C)C)c(O)c(C(C)(C)C)c1)Sc1cc(C(C)(C)C)c(O)c(C(C)(C)C)c1` [probucol, 4,4′-(isopropylidenedithio) bis[2,6-di-tert-butylphenol]], the solubility in water result in data set [3] is “minimally soluble in water”.
